Test results taken from publication PMC5526615, “Phenotypic, chemical and functional characterization of cyclic nucleotide phosphodiesterase 4 (PDE4) as a potential anthelmintic drug target” (PLoS Neglected Tropical Diseases, 2017).
Where “and” joins values, the source holds several entries; their conditions need not be identical. Identical values can stand only once. Like-named read-outs stand apart in the source and are kept apart here.

Columns and labels:
[1] = system: adult S. mansoni; assay: Wormassay adult worm motility; format: cell-based; details: Schistosoma mansoni, 1 h, read-out: Adult motility (-fold increase vs. DMSO controls)
Method: Adult schistosome screens were performed in 24-well plates (Corning Inc., cat. # 3544) using five worm pairs per well in a final volume of 2 ml of the above Basch medium. Compound was added in a volume of 1 μl DMSO such that the final concentration was 10 μM. Incubations were maintained for 3 days at 37°C under 5% CO2.
Parasite responses to chemical insult were adjudicated visually every 24 h (also at the 1 h time point for adults) using an inverted microscope and employed a constrained nomenclature of phenotype descriptors (e.g., rounding, degeneration, overactivity and slowed motility) as described. For adult parasites, in addition to observation-based annotations, we employed Wormassay to measure worm motility. Briefly, Wormassay comprises a commodity digital movie camera connected to an Apple personal computer that operates an open source software application to automatically process multiple wells (in 6-, 12- or 24-well plate formats). The application detects worm-induced changes in the occupation and vacancy of pixels between frames (outputted as an average ± S.D.). Worm motion was quantified using the “Consensus Voting Luminance Difference” option.

[2] = system: WT C. elegans (N2 Bristol); assay: C. elegans motility assay (body bends), wild type; format: cell-based, Caenorhabditis elegans; details: 100 μM, 16 h
Method: (§1) Compounds were directly added onto the OP50 food source at a 100 μM final concentration or the equivalent 0.2% DMSO as control. Previously synchronized early L4 stage larvae were cultivated on NGM plates with OP50 and compounds at 20°C for 16 h. For each experimental condition and transgenic line, motility was measured for 10–20 animals. The animals were washed twice in S basal buffer, transferred onto a new NGM plate in the absence of bacteria. After a brief period of recovery from this manipulation, locomotion was measured by counting the number of body bends in 30 s intervals under a stereoscope.

[3] = biological target: SmPDE4A (Schistosoma mansoni, UniProt A0A5K4ENE3); assay: biochemical
Chain of SmPDE4A (A0A5K4ENE3 entry or part of it): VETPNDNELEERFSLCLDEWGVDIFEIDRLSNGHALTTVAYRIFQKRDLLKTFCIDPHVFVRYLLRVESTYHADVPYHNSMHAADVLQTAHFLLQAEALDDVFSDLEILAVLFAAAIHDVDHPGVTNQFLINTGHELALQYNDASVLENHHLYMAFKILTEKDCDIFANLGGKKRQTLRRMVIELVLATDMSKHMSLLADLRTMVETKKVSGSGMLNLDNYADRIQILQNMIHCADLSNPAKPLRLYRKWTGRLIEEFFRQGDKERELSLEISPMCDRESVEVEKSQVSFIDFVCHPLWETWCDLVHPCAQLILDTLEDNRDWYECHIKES
Method: Assays were performed in triplicate, and IC50 values were determined by non-linear regression analysis using the four-parameter logistic equation (Prism GraphPad version. 6.03).
Assay of PDE4 enzymatic activity was as described: huPDE4B2 was purchased from Proteros Biostructures, GmbH, Martinsried, Germany. […] The precipitate was collected by filtration onto Multi-Screen HTS FB plates (Millipore, Billerica, MA), washed and then dried for quantitation of radioactivity. For tests with PDE4 inhibitors, fifty percent inhibitory concentration (IC50) values were calculated based on a four-parameter logistic equation: the means and number of replicates are reported in Fig 4.

[4] = biological target: T1, huPDE4B2 (Homo sapiens, UniProt Q07343); assay: PDE4 inhibition assay, huPDE4B2 catalytic domain ([3H]-cAMP hydrolysis); format: biochemical; details: Anacor's in-house data, mean ± SD (number of assays) or two single assay values, read-out: Human PDE4B2 IC50
T1 construct: performed using the catalytic domains of (A) huPDE4B2 (NP_001032416.1); purchased Proteros Biostructures, GmbH, Martinsried, Germany
T1 sequence (Q07343 324-659): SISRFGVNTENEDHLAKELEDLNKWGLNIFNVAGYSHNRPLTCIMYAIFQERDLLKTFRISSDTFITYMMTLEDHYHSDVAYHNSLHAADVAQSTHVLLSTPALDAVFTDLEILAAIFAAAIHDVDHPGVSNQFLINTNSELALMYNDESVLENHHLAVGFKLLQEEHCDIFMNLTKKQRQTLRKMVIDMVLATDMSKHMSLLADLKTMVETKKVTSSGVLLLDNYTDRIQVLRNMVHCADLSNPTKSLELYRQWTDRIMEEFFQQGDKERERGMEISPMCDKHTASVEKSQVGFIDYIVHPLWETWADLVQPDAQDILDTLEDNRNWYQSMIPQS
Method: Assays with each inhibitor were performed using the catalytic domains of (A) huPDE4B2 (NP_001032416.1) and (B) SmPDE4A (Smp_134140).
Assay of PDE4 enzymatic activity was as described [96]: huPDE4B2 was purchased from Proteros Biostructures, GmbH, Martinsried, Germany. […] The precipitate was collected by filtration onto Multi-Screen HTS FB plates (Millipore, Billerica, MA), washed and then dried for quantitation of radioactivity.

[5] = system: pde4(ce268);smpde4a(a) and pde4(ce268);smpde4a(b) transgenic C. elegans; assay: C. elegans motility assay (body bends), transgenic lines expressing smpde4a; format: cell-based, Caenorhabditis elegans; details: 100 μM, 16 h
Method: To generate C. elegans that carry the SmPDE4A transgene, the plasmids described above were purified and microinjected into the gonads of both WT (N2) and pde4(ce268) mutant strains at a concentration of 50 ng/μl. The injected worms (P0) were transferred to individual freshly seeded bacteria plates and allowed to reproduce. F1 progeny were screened for evidence of transgene expression based on the GFP marker. Each transgenic F1 was then singled onto a new plate. This process was repeated until lines that stably transmit the transgene were established in WT or pde(ce268) animal backgrounds. To verify the consistency of GFP expression in the transgenic lines, 10–20 transgenic animals from each line were examined using a Zeiss Axioplan II stereoscope equipped with a FITC/GFP filter (emission 500–515 nm).
as §1, with “The animals were washed twice in S basal buffer, transferred onto a new NGM plate in the absence of bacteria.” left out

[6] = system: huPDE4A; details: huPDE4A ref 96; cited from earlier work
[7] = system: huPDE4B; details: huPDE4B ref 96; cited from earlier work
[8] = system: huPDE4D; details: huPDE4D ref 96; cited from earlier work
[9] = recombinant catalytic domain, mean ± SD (number of assays) or two single assay values, read-out: SmPDE4A IC50
[10] = SmPDE4A IC50, recombinant catalytic domain, mean ± SD (number of assays) or two single assay values

CC(=O)CCCOc1nc(Oc2cc(F)c3c(c2)COB3O)c(Cl)cc1C#N [Compound 1]
fold induction at 10 µM ([1]; Wormassay, 10 μM after 1 h): 9.9

CC(=O)CCCOc1nc(Oc2ccc3c(c2)COB3O)c(Cl)cc1C#N [Compound 2]
fold induction at 10 µM ([1]; Wormassay, 10 μM after 1 h): 7.9
motility relative to the DMSO control [2]: increased motility

CN(C)C(=O)CCCOc1nc(Oc2ccc3c(c2)COB3O)ccc1C#N [Compound 3]
IC50 [3, 9]: 14.7 ± 6.4 nM
IC50 [4]: 30 ± 26.7 nM
fold induction at 10 µM ([1]; Wormassay, 10 μM after 1 h): 7.1

CC(C)OCCOc1nc(Oc2ccc3c(c2)COB3O)ccc1C#N [Compound 4]
IC50 [3, 9]: 12 ± 6.2 nM
IC50 [4]: 3.8 ± 2.7 nM
fold induction at 10 µM ([1]; Wormassay, 10 μM after 1 h): 5.7
motility relative to the DMSO control [2]: did not

N#Cc1ccc(Oc2ccc3c(c2)COB3O)cc1C(F)(F)F [Compound 5]
IC50 [3, 10]: 47 ± 27.4 nM
IC50 [4]: 68.9 nM and 22.1 nM
fold induction at 10 µM [1]: 3.9

CC(C)S(=O)(=O)c1ccc(Oc2ccc3c(c2)COB3O)cc1 [Compound 6]
IC50 [3, 9]: 415 nM
IC50 [4]: 43.6 nM and 65 nM
fold induction at 10 µM ([1]; Wormassay, 10 μM after 1 h): 1.5

N#Cc1ccc(Oc2ccc3c(c2)COB3O)cc1O [Compound 7]
IC50 [3, 9]: 123 nM
IC50 [4]: 19.3 nM and 32.4 nM
fold induction at 10 µM ([1]; Wormassay, 10 μM after 1 h): 1.1

O=C(Nc1c(Cl)cncc1Cl)c1ccc(OC(F)F)c(OCC2CC2)c1 [Roflumilast, roflumilast, reference compound]
IC50 [3, 10]: 11.3 nM and 18 nM and 11 nM

COc1ccc(C2CNC(=O)C2)cc1OC1CCCC1 (stereo not shown) [Rolipram, rolipram, reference compound]
IC50 ([3]; recombinant catalytic domain, read-out: SmPDE4A IC50): > 10000 nM
motility of mutant lines carrying the smpde4a transgene [5]: increased motility significantly

Nc1ncnc2c1ncn2[C@@H]1O[C@@H]2COP(=O)(O)O[C@H]2[C@H]1O [cAMP, cyclic adenosine monophosphate]
Km [6]: 0.98 µM
Km [7]: 2.25 µM
Km [8]: 7.81 µM
